pIC50: −log10 of the molar value. “And” between values parts separate entries of the source, which are not always exact repeats. Equal values may be shown once.
Tested on: 454973-116-R2-J3-PDC spheroids, viability, % test/control
Experiment: Anticancer human tumor 454973-116-R2-J3-PDC patient-derived pancreatic carcinoma cell line growth inhibition [GQUAD]
Conditions: spheroids with HUVEC and MSC; for viability, T/C: stronger effect = lower value
From the text: DNA G-quadruplex Stabilizer Agents in Combinations in Complex Spheroids
A high-throughput screen of multi-cell type tumor spheroids was designed to identify active combinations of DNA G-quadruplex stabilizer agents and targeted small molecules. Complex spheroids include a stromal component modeled by human endothelial cells (HUVEC) and fibroblasts modeled by human mesenchymal stem cells (MSCs). The concentration ranges selected for each drug and investigational agent were based upon clinically achievable concentrations if the clinical Cmax of the agent was known.
Compounds. The drugs and investigational agents: pidnarulex (CX-5461; NSC782164), APTO-253 (NSC789042), BRACO-19 (NSC847499), peposertib (NSC802822), ceralasertib (NSC780249), elimusertib (NSC800525), camonsertib (NSC841442), AZD-1390 (NSC803789), olaparib (NSC753686), talazoparib (NSC767125), ART-558 (NSC835418), sotorasib (NSC818433), MRTX-1133 (NSC836407), SN-38 (NSC673596), topotecan (NSC609699), etoposide (NSC141540), doxorubicin (NSC123127), gemcitabine (NSC613327), 5-fluorouracil (NSC19893), paclitaxel (NSC125973), vemurafenib (NSC761431), panobinostat (NSC761190), R-306465 (JNJ-16241199; NSC773264), adavosertib (NSC754352), TP-3654 (NSC805149), carboplatin (NSC241240), KSQ-4279 (NSC840948), and staurosporine (NSC755774) were obtained from the National Cancer Institute (NCI) Developmental Therapeutics Program Chemical Repository (34). The FDA-approved anticancer drug set is available from the NCI Developmental Therapeutics Program. […] The stock solutions were prepared in dimethyl sulfoxide (DMSO, Sigma-Aldrich, St. Louis, MO, cat. D2650) at 800-fold the tested concentration and stored at -70 degrees C prior to their use. All drugs and investigational agents were tested over a range starting from a high concentration at or near the clinical Cmax and decreasing in half-log increments. If the clinical Cmax for an agent had not been determined, the highest concentration tested was 10 microM.
2.3 Cell Culture. All cells were maintained in an incubator at 37 degrees C and 5% CO2 with 95% humidity. The PDC lines were cultured according to standard operating procedures established by the NCI PDMR. All PDCs were thawed and cultured in Matrigel-coated flasks prepared with a working solution of 1X Ham's F-12 nutrient mix, without supplementation (Invitrogen, cat. 11765054), 100 U/mL penicillin-streptomycin (Invitrogen, cat. 15140122), and 2.5% Matrigel (Corning Inc., cat. 354248) for the first three passages. The 857933-349-R-J2-PDC line was cultured in 6C/Colon 1B media, which includes advanced DMEM/F-12 (Thermo Fisher Scientific, cat. 12634028), 10 mM HEPES (Thermo Fisher Scientific, cat. 15630080), 1X GlutaMAX supplement (Thermo Fisher Scientific, cat. 35050061), 0.1 mg/mL primocin (InvivoGen, cat. ant-pm-2), 10% defined fetal bovine serum, heat inactivated (HyClone Laboratories Inc., cat. SH30070.03HI), 50% L-WRN conditioned media (ATCC, cat. CRL-3276), 1.25 mM N-Acetyl-L-cysteine (Sigma-Aldrich, cat. A9165), 10 mM nicotinamide (Sigma-Aldrich, cat. N0636), 1X B-27 supplement (Thermo Fisher Scientific, cat. 17504044), 1X N-2 supplement (Thermo Fisher Scientific, cat. 17502048), 10 microM Y-27632 dihydrochloride (Tocris Bioscience, cat. 1254), and 50 ng/mL human EGF recombinant protein (Thermo Fisher Scientific, cat. PHG0311). The 485176-168-R4-J1-PDC line was cultured in Panc media, which includes all 6C/Colon 1B media components plus 100 ng/mL human FGF-10 (Thermo Fisher Scientific, cat. 100-26), 500 nM SB-431542 (Selleckchem, cat. S1067), and gastrin (Tocris, cat. 3006).
[…]

[1] = curve of first compound, second compound 0.0316 µM
[2] = curve of first compound, second compound 0.1 µM
[3] = curve of first compound, second compound 0.316 µM
[4] = curve of first compound, second compound 1 µM
[5] = curve of first compound, second compound 3.16 µM
[6] = curve of first compound, second compound 10 µM
[7] = second compound 0.0316 µM, first compound 0.0316 µM
[8] = second compound 0.0316 µM, first compound 0.1 µM
[9] = second compound 0.0316 µM, first compound 0.316 µM
[10] = second compound 0.0316 µM, first compound 1 µM
[11] = second compound 0.0316 µM, first compound 3.16 µM
[12] = second compound 0.0316 µM, first compound 10 µM
[13] = second compound 0.1 µM, first compound 0.0316 µM
[14] = second compound 0.1 µM, first compound 0.1 µM
[15] = second compound 0.1 µM, first compound 0.316 µM
[16] = second compound 0.1 µM, first compound 1 µM
[17] = second compound 0.1 µM, first compound 3.16 µM
[18] = second compound 0.1 µM, first compound 10 µM
[19] = second compound 0.316 µM, first compound 0.0316 µM
[20] = second compound 0.316 µM, first compound 0.1 µM
[21] = second compound 0.316 µM, first compound 0.316 µM
[22] = second compound 0.316 µM, first compound 1 µM
[23] = second compound 0.316 µM, first compound 3.16 µM
[24] = second compound 0.316 µM, first compound 10 µM
[25] = second compound 1 µM, first compound 0.0316 µM
[26] = second compound 1 µM, first compound 0.1 µM
[27] = second compound 1 µM, first compound 0.316 µM
[28] = second compound 1 µM, first compound 1 µM
[29] = second compound 1 µM, first compound 3.16 µM
[30] = second compound 1 µM, first compound 10 µM
[31] = second compound 3.16 µM, first compound 0.0316 µM
[32] = second compound 3.16 µM, first compound 0.1 µM
[33] = second compound 3.16 µM, first compound 0.316 µM
[34] = second compound 3.16 µM, first compound 1 µM
[35] = second compound 3.16 µM, first compound 3.16 µM
[36] = second compound 3.16 µM, first compound 10 µM
[37] = second compound 10 µM, first compound 0.0316 µM
[38] = second compound 10 µM, first compound 0.1 µM
[39] = second compound 10 µM, first compound 0.316 µM
[40] = second compound 10 µM, first compound 1 µM
[41] = second compound 10 µM, first compound 3.16 µM
[42] = second compound 10 µM, first compound 10 µM
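Note: spheroids exposed to compounds for seven days.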

SMILES: CN(C)c1ccc(Nc2c3ccc(NC(=O)CCN4CCCC4)cc3nc3cc(NC(=O)CCN4CCCC4)ccc23)cc1
- viability, T/C (compound 0.0316 µM): 107% [middle of 12 runs]
- viability, T/C (compound 0.1 µM): 106% [middle of 12 runs]
- viability, T/C (compound 0.316 µM): 103% [middle of 12 runs]
- viability, T/C (compound 1 µM): 98.5% [middle of 12 runs]
- viability, T/C (compound 3.16 µM): 94.8% [middle of 12 runs]
- viability, T/C (compound 10 µM): 74% [middle of 12 runs]
- pIC50 (compound alone, run of 04/22/2024): < 5.00

SMILES: Cc1cnc(CNC(=O)c2c(=O)c3ccc(N4CCCN(C)CC4)nc3n3c2sc2ccccc23)cn1
- viability, T/C (compound 0.0316 µM): 92.6% [middle of 12 runs]
- viability, T/C (compound 0.1 µM): 82.4% [middle of 12 runs]
- viability, T/C (compound 0.316 µM): 74% [middle of 12 runs]
- viability, T/C (compound 1 µM): 72.2% [middle of 12 runs]
- viability, T/C (compound 3.16 µM): 64.6% [middle of 12 runs]

SMILES: Cc1cccc(N(C)C(=O)C2C(O)CCN2c2nc(C)cc(C(F)(F)F)c2C#N)c1 (configuration not stated)
- viability, T/C (compound 0.0316 µM): 93.2% and 106% and 100%
- viability, T/C (compound 0.1 µM): 98.7% and 101% and 97.4%
- viability, T/C (compound 0.316 µM): 105% and 106% (2×)
- viability, T/C (compound 1 µM): 102% and 93.6% and 108%
- viability, T/C (compound 3.16 µM): 110% and 108% and 113%
- viability, T/C (compound 10 µM): 107% (2×) and 101%
- pIC50 (curve of compound): < 5.00

SMILES: COc1cc(C2c3cc4c(cc3C(OC3OC5COC(C)OC5C(O)C3O)C3COC(=O)C23)OCO4)cc(OC)c1O (configuration not stated) + Cc1[nH]c2ccc(F)cc2c1-c1nc2c3cccnc3c3ncccc3c2[nH]1
- pIC50 [1]: 5.95
- pIC50 [2]: 5.89
- pIC50 [3]: 5.93
- pIC50 [4]: 5.95
- pIC50 [5]: 6.00
- pIC50 [6]: 5.93
- viability, T/C [7]: 112%
- viability, T/C [8]: 92.4%
- viability, T/C [9]: 99.7%
- viability, T/C [10]: 52%
- viability, T/C [11]: 22.7%
- viability, T/C [12]: 13.3%
- viability, T/C [13]: 103%
- viability, T/C [14]: 92.3%
- viability, T/C [15]: 88%
- viability, T/C [16]: 56.8%
- viability, T/C [17]: 25.6%
- viability, T/C [18]: 13.3%
- viability, T/C [19]: 106%
- viability, T/C [20]: 101%
- viability, T/C [21]: 83.7%
- viability, T/C [22]: 55.6%
- viability, T/C [23]: 23.9%
- viability, T/C [24]: 12.4%
- viability, T/C [25]: 93.7%
- viability, T/C [26]: 98.3%
- viability, T/C [27]: 86.2%
- viability, T/C [28]: 53.5%
- viability, T/C [29]: 21.2%
- viability, T/C [30]: 13.5%
- viability, T/C [31]: 115%
- viability, T/C [32]: 94.7%
- viability, T/C [33]: 98.7%
- viability, T/C [34]: 48.5%
- viability, T/C [35]: 22.9%
- viability, T/C [36]: 13.4%
- viability, T/C [37]: 97.1%
- viability, T/C [38]: 84.4%
- viability, T/C [39]: 80.7%
- viability, T/C [40]: 55.3%
- viability, T/C [41]: 23%
- viability, T/C [42]: 13.2%

SMILES: C=CC(=O)N1CCN(c2nc(=O)n(-c3c(C)ccnc3C(C)C)c3nc(-c4c(O)cccc4F)c(F)cc23)C(C)C1 (configuration not stated)
- viability, T/C (compound 0.0316 µM): 105% and 109% and 98.9%
- viability, T/C (compound 0.1 µM): 108% and 100% and 98.3%
- viability, T/C (compound 0.316 µM): 108% and 105% and 116%
- viability, T/C (compound 1 µM): 111% and 116% and 110%
- viability, T/C (compound 3.16 µM): 111% and 110% and 115%
- viability, T/C (compound 10 µM): 115% and 108% and 109%
- pIC50 (curve of compound): < 5.00

SMILES: COc1ncnc(C2CC2)c1-c1ncc2cnn(Cc3ccc(-c4nc(C(F)(F)F)cn4C(C)C)cc3)c2n1 + CN(C)c1ccc(Nc2c3ccc(NC(=O)CCN4CCCC4)cc3nc3cc(NC(=O)CCN4CCCC4)ccc23)cc1
- pIC50 [1]: < 5.00
- pIC50 [2]: < 5.00
- pIC50 [3]: < 5.00
- pIC50 [4]: < 5.00
- pIC50 [5]: < 5.00
- pIC50 [6]: < 5.00
- viability, T/C [7]: 104%
- viability, T/C [8]: 113%
- viability, T/C [9]: 97.6%
- viability, T/C [10]: 102%
- viability, T/C [11]: 99.5%
- viability, T/C [12]: 102%
- viability, T/C [13]: 102%
- viability, T/C [14]: 114%
- viability, T/C [15]: 114%
- viability, T/C [16]: 108%
- viability, T/C [17]: 84.8%
- viability, T/C [18]: 95.4%
- viability, T/C [19]: 94.2%
- viability, T/C [20]: 104%
- viability, T/C [21]: 102%
- viability, T/C [22]: 101%
- viability, T/C [23]: 91.6%
- viability, T/C [24]: 90.6%
- viability, T/C [25]: 96.3%
- viability, T/C [26]: 96.2%
- viability, T/C [27]: 101%
- viability, T/C [28]: 106%
- viability, T/C [29]: 94.2%
- viability, T/C [30]: 97.1%
- viability, T/C [31]: 86.2%
- viability, T/C [32]: 91.6%
- viability, T/C [33]: 105%
- viability, T/C [34]: 87%
- viability, T/C [35]: 93.5%
- viability, T/C [36]: 78.5%
- viability, T/C [37]: 71%
- viability, T/C [38]: 69.4%
- viability, T/C [39]: 77.2%
- viability, T/C [40]: 66.5%
- viability, T/C [41]: 61.9%
- viability, T/C [42]: 50.8%

SMILES: COc1cccc2c1C(=O)c1c(O)c3c(c(O)c1C2=O)CC(O)(C(=O)CO)CC3OC1CC(N)C(O)C(C)O1 (configuration not stated)
- viability, T/C (compound 0.0316 µM): 96.8% and 101% and 90.3%
- viability, T/C (compound 0.1 µM): 63.4% and 69.4% and 65.3%
- viability, T/C (compound 0.316 µM): 24.1% and 34.5% and 26.2%
- viability, T/C (compound 1 µM): 25.2% and 30.2% and 26.5%
- viability, T/C (compound 3.16 µM): 11.2% and 23.5% and 13%
- viability, T/C (compound 10 µM): 0.95% and 0.93% and 0.63%
- pIC50 (curve of compound): 6.82 and 6.65 and 6.79

Reference: PubChem BioAssay AID2060508 (Molecular Pharmacology Branch, DTP, NCI, 2025)
